Reference: ChEMBL document CHEMBL5233257, “Anticancer property of ginsenoside Rh2 from ginseng” (Eur J Med Chem, 2020)
Converted amounts (≈) assume the structure as drawn.

Legend:
[1] = test system: HepG2; experiment: Induction of apoptosis in human HepG2 cells incubated for 72 hrs; type: functional, cell-based; conditions: HepG2, 72 h
[2] = test system: HepG2; experiment: Induction of apoptosis in human HepG2 cells incubated for 24 hrs; type: functional, cell-based; conditions: HepG2, 24 h
[3] = test system: HepG2; experiment: Induction of apoptosis in human HepG2 cells incubated for 48 hrs by PI/Annexin V-FITC analysis; type: functional, cell-based; conditions: HepG2, 48 h
[4] = test system: HepG2; experiment: Induction of apoptosis in human HepG2 cells incubated for 72 hrs by PI/Annexin V-FITC analysis; type: functional, cell-based; conditions: HepG2, 72 h
[5] = test system: HepG2; experiment: Induction of apoptosis in human HepG2 beta-catenin cells incubated for 48 hrs by PI/Annexin V-FITC analysis; type: functional, cell-based; conditions: HepG2, 48 h
[6] = test system: HepG2; experiment: Induction of apoptosis in human HepG2 beta-catenin cells incubated for 72 hrs by PI/Annexin V-FITC analysis; type: functional, cell-based; conditions: HepG2, 72 h
[7] = test system: HepG2; experiment: Induction of cell death in human HepG2 cells assessed as lethal dose; type: functional; conditions: read-out: LD50 (the source's name)
[8] = test system: HCT-116; experiment: Induction of cell death in human HCT-116 cells incubated for 48 hrs by trypan blue staining based analysis; type: functional; conditions: HCT-116, 48 h
[9] = test system: SW480; experiment: Induction of cell death in human SW480 cells incubated for 48 hrs by trypan blue staining based analysis; type: functional; conditions: SW480, 48 h
[10] = test system: HL-60; experiment: Induction of apoptosis in human HL-60 cells assessed as reduction in cell viability incubated for 72 hrs by CCK-8 assay; type: functional, cell-based; conditions: HL-60, 72 h
[11] = test system: Kasumi 1; experiment: Induction of apoptosis in human Kasumi 1 cells assessed as reduction in cell viability incubated for 72 hrs by CCK-8 assay; type: functional, cell-based; conditions: Kasumi 1, 72 h
[12] = test system: HL-60; experiment: Induction of apoptosis in human HL-60 cells; type: functional, cell-based
[13] = test system: HL-60; experiment: Cytotoxicity against human HL-60 cells measured after 24 hrs by MTT assay; type: functional, cell-based; conditions: HL-60, 24 h
[14] = test system: U-937; experiment: Cytotoxicity against human U-937 cells measured after 24 hrs by MTT assay; type: functional, cell-based; conditions: U-937, 24 h
[15] = test system: THP-1; experiment: Induction of apoptosis in human THP-1 cells; type: functional, cell-based
[16] = test system: K562; experiment: Cytotoxicity against human K562 cells incubated for 48 hrs by CCK-8 assay; type: functional, cell-based; conditions: K562, 48 h
[17] = test system: KG-1; experiment: Cytotoxicity against human KG-1 alpha cells incubated for 48 hrs by CCK-8 assay; type: functional, cell-based; conditions: KG-1, 48 h
[18] = test system: KG-1; experiment: Cytotoxicity against human KG-1 alpha cells; type: functional, cell-based
[19] = test system: REH; experiment: Induction of apoptosis in human REH cells; type: functional, cell-based
[20] = test system: Jurkat; experiment: Induction of apoptosis in human Jurkat cells; type: functional, cell-based
[21] = Inhibition of proliferation in human Jurkat cells assessed as reduction in cell viability incubated for 48 hrs by CCK-8 assay; type: functional, cell-based
[22] = test system: HeLa; experiment: Induction of apoptosis in human HeLa cells incubated for 2 hrs by fluorescence microscopic analysis; type: functional, cell-based
[23] = test system: SK-HEP1; experiment: Induction of apoptosis in human SK-HEP1 cells incubated for 2 hrs by fluorescence microscopic analysis; type: functional, cell-based; conditions: SK-HEP1, 2 h
[24] = test system: SW480; experiment: Induction of apoptosis in human SW480 cells incubated for 2 hrs by fluorescence microscopic analysis; type: functional, cell-based; conditions: SW480, 2 h
[25] = test system: PC-3; experiment: Antiproliferative activity against human PC-3 cells; type: functional, cell-based
[26] = test system: HCT-116; experiment: Cytotoxicity against human HCT-116 assessed as reduction in cell viability by MTT assay; type: functional, cell-based
[27] = test system: LNCaP; experiment: Antiproliferative activity against human LNCaP cells incubated for 3 days; type: functional, cell-based; conditions: 72 h
[28] = test system: PC-3; experiment: Antiproliferative activity against human PC-3 cells incubated for 3 days; type: functional, cell-based; conditions: PC-3, 72 h
[29] = test system: DU-145; experiment: Antiproliferative activity against human DU-145 cells incubated for 3 days; type: functional, cell-based; conditions: DU-145, 72 h
[30] = test system: LNCaP; experiment: Antiproliferative activity against human LNCaP cells; type: functional, cell-based
[31] = test system: MDA-MB-231; experiment: Induction of apoptosis in human MDA-MB-231 cells assessed as inhibition of cell viability; type: functional, cell-based
[32] = test system: MCF7; experiment: Induction of apoptosis in human MCF7 cells assessed as inhibition of cell viability; type: functional, cell-based
[33] = test system: MDA-MB-231; experiment: Antiproliferative activity against human MDA-MB-231 cells; type: functional, cell-based
[34] = test system: MCF7; experiment: Antiproliferative activity against human MCF7 cells; type: functional, cell-based
[35] = test system: A549; experiment: Antiproliferative activity against human A549 cells; type: functional, cell-based
[36] = Cytotoxicity against human HRA cells assessed as reduction in cell viability measured after 5 days by crystal violet staining based analysis; type: functional; conditions: 120 h
[37] = Cytotoxicity against human KK cells assessed as reduction in cell viability measured after 5 days by crystal violet staining based analysis; type: functional; conditions: 120 h
[38] = Cytotoxicity against human KF cells assessed as reduction in cell viability measured after 5 days by crystal violet staining based analysis; type: functional; conditions: 120 h
[39] = Cytotoxicity against human KFR cells assessed as reduction in cell viability measured after 5 days by crystal violet staining based analysis; type: functional; conditions: 120 h
[40] = test system: B16-F10; experiment: Induction of cell death in mouse B16-F10 cells; type: functional, cell-based
[41] = test system: MDA-MB-231; experiment: Induction of cell death in human MDA-MB-231 cells; type: functional, cell-based
[42] = test system: Huh-7; experiment: Induction of cell death in human Huh-7 cells; type: functional, cell-based
[43] = test system: B16; experiment: Growth inhibition of mouse B16 cells; type: functional, cell-based
[44] = Induction of apoptosis in human HK-1 cells; type: functional, cell-based

CC(C)=CCC[C@](C)(O)[C@H]1CC[C@]2(C)[C@@H]1[C@H](O)C[C@@H]1[C@@]3(C)CC[C@H](O[C@@H]4O[C@H](CO)[C@@H](O)[C@H](O)[C@H]4O)C(C)(C)[C@@H]3CC[C@]12C [GINSENOSIDE RH2]
IC50 [1]: 1.65 µg/mL (≈ 2.65 µM) | IC50 [2]: 42.1 µM | IC50 [3]: 100 µM | IC50 [4]: 58.1 µM | IC50 [5]: 129 µM | IC50 [6]: 83.3 µM | CC50 [7]: 10 µM | IC50 [8]: 35 µM | IC50 [9]: 35 µM | IC50 [10]: 25.6 µM | IC50 [11]: 60.1 µM | IC50 [12]: 25 µM | IC50 [13]: 38 µM | IC50 [14]: 38 µM | IC50 [15]: 15 µg/mL (≈ 24.1 µM) | CC50 ([15]; read-out: LC50 (the source's name)): 15 µg/mL (≈ 24.1 µM) | IC50 [16]: 60 µM | IC50 [17]: 60 µM | IC50 [18]: 75 µM | IC50 [19]: 40 µM | IC50 [20]: 35 µM | IC50 [21]: 35 µM | IC50 [22]: 2.52 µg/mL (≈ 4.05 µM) | IC50 [23]: 3.15 µg/mL (≈ 5.06 µM) | IC50 [24]: 4.06 µg/mL (≈ 6.52 µM) | EC50 [25]: 5.5 µM | IC50 [26]: 19.6 µM | IC50 [27]: 17 µM | IC50 [28]: 35 µM | IC50 [29]: 38 µM | EC50 [30]: 4.4 µM | IC50 [31]: 50 µM | IC50 [32]: 50 µM | EC50 [33]: 57.4 µM | EC50 [34]: 52.5 µM | IC50 [35]: 28.5 µg/mL (≈ 45.8 µM) | IC50 [36]: 30 µM | IC50 [37]: 45 µM | IC50 [38]: 40 µM | IC50 [39]: 41 µM | IC50 [40]: 35.6 µM | IC50 [41]: 39.9 µM | IC50 [42]: 39 µM | IC50 [43]: 4.1 µg/mL (≈ 6.58 µM) | IC50 [44]: 12 µM
